These are literature values, as cited in patent US20230019058A1, “METHOD FOR THE TREATMENT OF VIRAL INFECTIONS” (Softhale NV, priority 2020, published 2023).

One series deals with influenza virus. As to conditions: reported by S. Matsuyama et al.; cited from earlier work.
For the next series, the system named is SARS-CoV-2. As to conditions: reported by S. Matsuyama et al., read-out: effective concentration to block SARS-CoV-2 replication (EC90); cited from earlier work.
For another series, the system named is human coronavirus. As to conditions: cultured cells; reported by S. Matsuyama et al.; cited from earlier work.
The test system of series [1] is respiratory syncytial virus. The conditions noted are these: reported by S. Matsuyama et al.; cited from earlier work.

Regarding `CC(C)C(=O)OCC(=O)[C@@]12O[C@H](C3CCCCC3)O[C@@H]1C[C@H]1[C@@H]3CCC4=CC(=O)C=C[C@]4(C)[C@H]3[C@@H](O)C[C@@]12C` [ciclesonide, (11β, 16α)-16, 17-[[(R)-cyclohexylmethylene]bis(oxy)]-11-hydroxy-21-(2-methyl-1-oxopropoxy)-pregna-1,4-diene-3,20-dione], the “suppression of replication of influenza virus” value in the series on influenza virus is “did not suppress”. Moreover, the EC90 in the series with SARS-CoV-2 was 6.3 µM. For the same compound, in the series on human coronavirus, the “suppression of human coronavirus replication” value was “suppressed human coronavirus replication”. Besides, the “suppression of replication of respiratory syncytial virus” value in series [1] was “did not suppress”.
